According to patent US5165931A, “Peptifluorin and neopeptifluorin” (E. R. Squibb & Sons, Inc., priority 1991, dated 1992):

Columns and labels:
Enterobacter cloacae = assay: agar dilution MIC assay, bacteria; type: cell-based; conditions: strain SC 8236; K-10 agar, 37° C., 18 hours
Experimental: (§1) The following methodology was used to determine the minimum inhibitory concentration (hereinafter referred to as MIC) of the compound of this invention against bacteria. The test organisms were grown in 20 ml of Antibiotic Assay Broth (Difco) by inoculating the broth (in tubes) with a loopful of the organism from a BHI (Difco) agar slant. The inoculated tubes were incubated at 37° C. for 18 to 24 hours. These cultures were assumed to contain 10^9 colony forming units (CFU) per ml. The cultures were diluted 1:100 to give a final inoculum level of 10^7 CFU; dilutions were made with Yeast Beef Broth (Difco). The test compound was dissolved in an appropriate diluent at a concentration of 1,000 μg/ml. Two-fold dilutions were made in Yeast Beef Broth (Difco), resulting in
(§2) a range from 1000 μg/ml to 0.5 μg/ml. A 1.5 ml portion of each dilution was placed into individual petri dishes to which 13.5 ml of K-10 agar was added. The composition of K-10 agar is:
(§3) The medium was sterilized at 121° C. for 15 minutes at 15 pounds psi.
(§4) The final drug concentration in the agar ranged from 100 μg/ml to 0.05 μg/ml. Organism growth control plates containing agar only were prepared and inoculated before and after the test plates. The organisms were applied to the agar surface of each plate with a Denly Multipoint Inoculator (which delivers approximately 0.001 ml of each inoculum) resulting in a final inoculum of 10^4 CFU on the agar surface.
(§5) The plates were incubated at 37° C. for 18 hours and the MICs determined. The MIC is the lowest concentration of compound inhibiting growth of the organism.
(§6) The results of the agar dilution assays with bacteria are: […]

Escherichia coli = assay: agar dilution MIC assay, bacteria; type: cell-based; conditions: K-10 agar, 37° C., 18 hours
Experimental: as §1, §2, §3, §4, §5, §6

Klebsiella pneumoniae = assay: agar dilution MIC assay, bacteria; type: cell-based; conditions: K-10 agar, 37° C., 18 hours
Experimental: as §1, §2, §3, §4, §5, §6

Micrococcus luteus = assay: agar dilution MIC assay, bacteria; type: cell-based; conditions: strain SC 2495; K-10 agar, 37° C., 18 hours
Experimental: as §1, §2, §3, §4, §5, §6

Salmonella typhosa = assay: agar dilution MIC assay, bacteria; type: cell-based; conditions: strain SC 1195; K-10 agar, 37° C., 18 hours
Experimental: as §1, §2, §3, §4, §5, §6

Shigella sonnei = assay: agar dilution MIC assay, bacteria; type: cell-based; conditions: strain SC 8449; K-10 agar, 37° C., 18 hours
Experimental: as §1, §2, §3, §4, §5, §6

Staphylococcus aureus = assay: agar dilution MIC assay, bacteria; type: cell-based; conditions: K-10 agar, 37° C., 18 hours
Experimental: as §1, §2, §3, §4, §5, §6

Streptococcus agalactiae = assay: agar dilution MIC assay, bacteria; type: cell-based; conditions: strain SC 14,008; K-10 agar, 37° C., 18 hours
Experimental: as §1, §2, §3, §4, §5, §6

Streptococcus faecalis = assay: agar dilution MIC assay, bacteria; type: cell-based; conditions: strain SC 9011; K-10 agar, 37° C., 18 hours
Experimental: as §1, §2, §3, §4, §5, §6

Candida albicans = assay: agar dilution MIC assay, yeasts; type: cell-based; conditions: 37° C., 36-48 hours
Experimental: as §1, §2, §4, §5
(§7) The methodology described above was modified in the assay for activity against yeasts. Fresh F-4 slants of the test organisms were obtained from frozen vials (-70° C.). The cultures were inoculated into tubes of F-4 broth and incubated at 37° C. for 18 to 24 hours, at which time the average cell count was assumed to be 5×10^7 CFU per ml. These were diluted 1:50 with fresh F-4 broth to give an inoculum level of 1×10^6 CFU per mL. The organisms were then dispensed into a sterile template (0.8 ml per well) and delivered onto the surface of each plate containing test compound as described above with a Denly Multipoint Inoculator, resulting in a final inoculum of 10^3 CFU on the agar surface.
(§8) The composition of the F-4 broth is:
(§9) The medium was sterilized at 121° C. for 15 minutes at 15 psi.
(§10) F-4 agar has the same composition as the broth but with the addition of 15 g agar per liter.
(§11) The results of the yeast, agar dilution assays (determined after incubation at 37° C. for 36-48 hours) are: […]

Candida glabrata = assay: agar dilution MIC assay, yeasts; type: cell-based; conditions: strain SC 11,267; 37° C., 36-48 hours
Experimental: as §1, §2, §4, §5, §7, §8, §9, §10, §11

Candida krusei = assay: agar dilution MIC assay, yeasts; type: cell-based; conditions: strain SC 2967; 37° C., 36-48 hours
Experimental: as §1, §2, §4, §5, §7, §8, §9, §10, §11

Candida tropicalis = assay: agar dilution MIC assay, yeasts; type: cell-based; conditions: 37° C., 36-48 hours
Experimental: as §1, §2, §4, §5, §7, §8, §9, §10, §11

Saccharomyces cerevisiae = assay: agar dilution MIC assay, yeasts; type: cell-based; conditions: 37° C., 36-48 hours
Experimental: as §1, §2, §4, §5, §7, §8, §9, §10, §11

mevalonate kinase = assay: inhibition of mevalonate kinase from yeast; type: biochemical
bacteria = assay: antibacterial activity (general statement); type: cell-based
Experimental: as §1, §2
The final drug concentration in the agar ranged from 100 μg/ml to 0.05 μg/ml. Organism growth control plates containing agar only were prepared and inoculated before and after the test plates. […]
The plates were incubated at 37° C. for 18 hours and the MICs determined. […]

yeasts = assay: antifungal activity (general statement); type: cell-based
Experimental: as §7

Substance | MIC (Enterobacter cloacae) [µg/mL] | MIC (Escherichia coli; strain SC 8294) [µg/mL] | MIC (Escherichia coli; strain SC 10,857) [µg/mL] | MIC (Escherichia coli; strain SC 10,896) [µg/mL] | MIC (Klebsiella pneumoniae; strain SC 9527) [µg/mL] | MIC (Klebsiella pneumoniae; strain SC 10,440) [µg/mL] | MIC (Micrococcus luteus) [µg/mL] | MIC (Salmonella typhosa) [µg/mL] | MIC (Shigella sonnei) [µg/mL] | MIC (Staphylococcus aureus; strain SC 1276) [µg/mL] | MIC (Staphylococcus aureus; strain SC 2399) [µg/mL] | MIC (Staphylococcus aureus; strain SC 2400) [µg/mL] | MIC (Streptococcus faecalis) [µg/mL] | MIC (Candida albicans; strain SC 5314) [µg/mL] | MIC (Candida albicans; strain SC 9177) [µg/mL] | MIC (Candida albicans; strain SC 11,422) [µg/mL] | MIC (Candida glabrata) [µg/mL] | MIC (Candida krusei) [µg/mL] | MIC (Candida tropicalis; strain SC 8159) [µg/mL] | MIC (Candida tropicalis; strain SC 9861) [µg/mL] | other results
neopeptifluorin | 12.5 | 50.0 | 12.5 | 12.5 | > 100 | 25.0 | 6.3 | 100 | 25 | 3.1 | 6.3 | 6.3 | 6.3 | 6.3 | 25.0 | 12.5 | 25.0 | 100 | 6.3 | 3.1 | MIC (Streptococcus agalactiae): 6.3 µg/mL; MIC (Saccharomyces cerevisiae; strain SC 1600): 6.3 µg/mL; MIC (Saccharomyces cerevisiae; strain SC 12,955): 12.5 µg/mL; MIC (Saccharomyces cerevisiae; strain SGY 1139): 1.6 µg/mL; inhibiting mevalonate kinase from yeast (mevalonate kinase): moderately active; antibacterial activity (bacteria): broad spectrum antibacterial activity; antifungal activity (yeasts): antifungal activity
peptifluorin | 25.0 | > 100.0 | 50.0 | 12.5 | > 100.0 | 50.0 | 6.3 | > 100.0 | 25.0 | 6.3 | 6.3 | 6.3 | 6.3 | 12.5 | 25.0 | 12.5 | 12.5 | 100 | 12.5 | 3.1 | MIC (Saccharomyces cerevisiae; strain SC 1600): 12.5 µg/mL; MIC (Saccharomyces cerevisiae; strain SC 12,955): 25.0 µg/mL; MIC (Saccharomyces cerevisiae; strain SGY 1139): 3.1 µg/mL; inhibiting mevalonate kinase from yeast (mevalonate kinase): moderately active; antibacterial activity (bacteria): broad spectrum antibacterial activity; antifungal activity (yeasts): antifungal activity
